Measured values reported in US20120157532A1, “Method Of Treating Or Preventing A Convulsive Disorder In A Patient In Need Thereof” (priority 2009, published 2012).

What was measured:
[1] = target: GABA transaminase (Homo sapiens, UniProt P80404); conditions: cited from earlier work
[2] = test system: Wistar rats Rj Wi IOPS Han; assay: Photopic electroretinogram (ERG) in VGB-treated rats; assay type: in vivo, rat; conditions: for photopic ERG amplitude versus control group: p<0.001/p<0.01
Experimental: (§1) Animal treatments: As described previously (Duboc et al., 2004), Wistar rats Rj Wi IOPS Han were purchased from Janvier (Le Genest-St-lsle, France) at between six and seven weeks of age. VGB dissolved in 0.9% NaCl was administered at 40 mg (125 mg/ml, 0.32 ml) to rats by daily intraperitoneal injection for 65 days. These daily doses (rats: 200 mg/kg) are in-line with those described for the treatment of epilepsy in animals (Andre et al., 2001) or in humans (adult patients: […]; children: 50-75 mg/kg; or infants: 100-150 mg/kg) (Aicardi et al., 1996; Chiron et al., 1997; Lux et al., 2004). Light intensity in the animal cages ranged between 125 and 130 lux.
Electroretinogram (ERG): Photopic ERGs were recorded after the last VGB injection, as described previously (Duboc et al., 2004). Anesthesia was induced by intraperitoneal injection (0.8 to 1.2 ml/kg) of a solution containing ketamine (40 mg/ml) and xylazine (4 mg/ml Rompum). Animals were light-adapted for 10 minutes with a background light of 25 cdm^−2. Light flashes were then applied on this background light; the light intensity of the flash was 25 cdsm^−2. Ten recordings were averaged with an interstimulus interval of 30 s.
Statistical analysis: Statistical analysis of the results was performed by a one-way analysis of variance with the Student-Newman Keuls test (Sigmastat) for all measurements.

[3] = test system: Wistar rats Rj Wi IOPS Han; assay: Histology: retinal gliosis by GFAP immunolabelling; assay type: in vivo, rat; conditions: 65 days
Experimental: as §1
Histology: Eye cups were fixed overnight at 4° C. in 4 % (wt/vol) paraformaldehyde in phosphate buffered saline (PBS; 0.01 M, pH 7.4). The tissue was cryoprotected in successive solutions of PBS containing 10%, 20% and 30% sucrose at 4° C., oriented along the dorso-ventral axis and embedded in OCT (Labonord, Villeneuve d'Ascq, France). Retinal sections (8-10 μm thickness) were permeabilised for five minutes in PBS containing 0.1% Triton X-100 (Sigma, St. Louis, Mo.), rinsed, and incubated in PBS containing 1% bovine serum albumin (Eurobio, Les-Ulis, France), 0.1% Tween 20 (Sigma), and 0.1% sodium azide (Merck, Fontenay-Sous-Bois, France) for two hours at room temperature. The primary antibody added to the solution was incubated for two hours at room temperature. Polyclonal antibodies were directed against rabbit GFAP (1/400, Dako, USA). Sections were rinsed and then incubated with the secondary antibody, goat anti-rabbit IgG conjugated to Alexa TM488 (1:500, Molecular Probes, Eugene, Oreg.) for two hours. The dye, diamidiphenyl-indole (DAPI), was added during the final incubation period. […]
(§2) For quantification, vertical sections along the dorso-ventral axis were selected at the optic nerve. Following DAPI nuclear staining, the lengths of disorganised retinal areas were measured; GFAP immunostaining was used for detection and quantificationof retinal areas with reactive gliosis. […]

[4] = test system: Wistar rats Rj Wi IOPS Han; assay: Histology: lengths of disorganised retinal areas (DAPI nuclear staining); assay type: in vivo, rat; conditions: evening versus morning injection, 65 days; p<0.05
Experimental: as §1
Histology: Eye cups were fixed overnight at 4° C. in 4 % (wt/vol) paraformaldehyde in phosphate buffered saline (PBS; 0.01 M, pH 7.4). The tissue was cryoprotected in successive solutions of PBS containing 10%, 20% and 30% sucrose at 4° C., oriented along the dorso-ventral axis and embedded in OCT (Labonord, Villeneuve d'Ascq, France). […]
as §2

[5] = test system: visual field; conditions: patients; cited from earlier work
[6] = patients, oral administration; cited from earlier work

GABA transaminase, sequence (P80404 29-500, species assumed): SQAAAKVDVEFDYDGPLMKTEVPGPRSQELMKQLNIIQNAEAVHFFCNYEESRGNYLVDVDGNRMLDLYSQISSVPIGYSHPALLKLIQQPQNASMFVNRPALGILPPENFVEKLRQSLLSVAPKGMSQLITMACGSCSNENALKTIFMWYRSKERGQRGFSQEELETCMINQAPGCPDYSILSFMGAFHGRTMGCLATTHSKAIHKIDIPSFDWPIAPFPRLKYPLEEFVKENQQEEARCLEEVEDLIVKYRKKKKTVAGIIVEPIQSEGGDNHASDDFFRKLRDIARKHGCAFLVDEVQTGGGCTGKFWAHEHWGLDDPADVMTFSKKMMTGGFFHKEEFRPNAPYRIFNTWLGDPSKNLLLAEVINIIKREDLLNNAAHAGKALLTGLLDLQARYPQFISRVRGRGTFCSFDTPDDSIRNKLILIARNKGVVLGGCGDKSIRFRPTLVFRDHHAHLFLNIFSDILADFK

photopic ERG amplitude versus control group ([2]; VGB AM: 40 mg daily i.p. for 65 days at the beginning of the light cycle): lower ERG amplitude
photopic ERG amplitude versus control group ([2]; VGB PM: 40 mg daily i.p. for 65 days at the end of the light cycle): lower ERG amplitude
ERG amplitude decrease, VGB PM versus VGB AM ([2]; injected at the end versus the beginning of the light cycle, 65 days, p<0.005): less important
GFAP staining in the outer retina versus control animals ([3]; VGB AM: morning injection): intense staining in the outer retina
GFAP staining in the outer retina versus control animals ([3]; VGB PM: evening injection): intense staining in the outer retina
distribution of GFAP-positive areas, VGB PM versus VGB AM ([3]; evening versus morning injection, p<0.05): less widely distributed
disorganised retinal areas (outer nuclear layer), VGB PM versus VGB AM [4]: smaller disorganised retinal areas
Structure (SMILES): C=CC(N)CCC(=O)O (centres unmarked) [VGB, 4-amino-5-hexenoic acid]
duration of irreversible inhibition of the GABA transaminase [1]: lasts for few days
effect on visual field [5]: irreversible constriction of the visual field
time for plasma VGB concentration to decrease to half of the peak concentration [6]: within six to eight hours
time to peak plasma VGB concentration [6]: within an hour
